Experimental data taken from ChEMBL document CHEMBL2074444, “A comparison of commonly used polyethoxylated pharmaceutical excipients on their ability to inhibit P-glycoprotein activity in vitro” (J Pharm Sci, 2002).
Values belong to the compound of their own block, whether it stands above or below them.

Assays:
Type in all cases: functional, cell-based
[1] = biological target: T1, ATP-dependent translocase ABCB1 (Homo sapiens, UniProt P08183); test: TP_TRANSPORTER: inhibition of Taxol transepithelial transport (basal to apical)(Taxol: 0.04-0.06 uM, Tween 80: 0.05 %) in Caco-2 cells
[2] = biological target: T1, ATP-dependent translocase ABCB1; test: TP_TRANSPORTER: inhibition of Taxol transepithelial transport (basal to apical)(Taxol: 0.04-0.06 uM, Tween 80: 0.05 %) in MDR1-expressing MDCK cells; conditions: dog
[3] = biological target: T1, ATP-dependent translocase ABCB1; test: TP_TRANSPORTER: inhibition of Taxol transepithelial transport (basal to apical)(Taxol: 0.04-0.06 uM, Cremophor EL: 0.1 %) in MDR1-expressing MDCK cells; conditions: dog
[4] = biological target: T1, ATP-dependent translocase ABCB1; test: TP_TRANSPORTER: inhibition of Taxol transepithelial transport (basal to apical)(Taxol: 0.04-0.06 uM, Cremophor EL: 0.1 %) in Caco-2 cells
[5] = biological target: T1, ATP-dependent translocase ABCB1; test: TP_TRANSPORTER: inhibition of Taxol transepithelial transport (basal to apical) (Taxol: 0.04-0.06 uM, PEG-300: 20 %) in Caco-2 cells
[6] = biological target: T1, ATP-dependent translocase ABCB1; test: TP_TRANSPORTER: inhibition of Taxol transepithelial transport (basal to apical) (Taxol: 0.04-0.06 uM, PEG-300: 20 %) in MDR1-expressing MDCK cells; conditions: dog

T1 sequence (P08183 whole entry): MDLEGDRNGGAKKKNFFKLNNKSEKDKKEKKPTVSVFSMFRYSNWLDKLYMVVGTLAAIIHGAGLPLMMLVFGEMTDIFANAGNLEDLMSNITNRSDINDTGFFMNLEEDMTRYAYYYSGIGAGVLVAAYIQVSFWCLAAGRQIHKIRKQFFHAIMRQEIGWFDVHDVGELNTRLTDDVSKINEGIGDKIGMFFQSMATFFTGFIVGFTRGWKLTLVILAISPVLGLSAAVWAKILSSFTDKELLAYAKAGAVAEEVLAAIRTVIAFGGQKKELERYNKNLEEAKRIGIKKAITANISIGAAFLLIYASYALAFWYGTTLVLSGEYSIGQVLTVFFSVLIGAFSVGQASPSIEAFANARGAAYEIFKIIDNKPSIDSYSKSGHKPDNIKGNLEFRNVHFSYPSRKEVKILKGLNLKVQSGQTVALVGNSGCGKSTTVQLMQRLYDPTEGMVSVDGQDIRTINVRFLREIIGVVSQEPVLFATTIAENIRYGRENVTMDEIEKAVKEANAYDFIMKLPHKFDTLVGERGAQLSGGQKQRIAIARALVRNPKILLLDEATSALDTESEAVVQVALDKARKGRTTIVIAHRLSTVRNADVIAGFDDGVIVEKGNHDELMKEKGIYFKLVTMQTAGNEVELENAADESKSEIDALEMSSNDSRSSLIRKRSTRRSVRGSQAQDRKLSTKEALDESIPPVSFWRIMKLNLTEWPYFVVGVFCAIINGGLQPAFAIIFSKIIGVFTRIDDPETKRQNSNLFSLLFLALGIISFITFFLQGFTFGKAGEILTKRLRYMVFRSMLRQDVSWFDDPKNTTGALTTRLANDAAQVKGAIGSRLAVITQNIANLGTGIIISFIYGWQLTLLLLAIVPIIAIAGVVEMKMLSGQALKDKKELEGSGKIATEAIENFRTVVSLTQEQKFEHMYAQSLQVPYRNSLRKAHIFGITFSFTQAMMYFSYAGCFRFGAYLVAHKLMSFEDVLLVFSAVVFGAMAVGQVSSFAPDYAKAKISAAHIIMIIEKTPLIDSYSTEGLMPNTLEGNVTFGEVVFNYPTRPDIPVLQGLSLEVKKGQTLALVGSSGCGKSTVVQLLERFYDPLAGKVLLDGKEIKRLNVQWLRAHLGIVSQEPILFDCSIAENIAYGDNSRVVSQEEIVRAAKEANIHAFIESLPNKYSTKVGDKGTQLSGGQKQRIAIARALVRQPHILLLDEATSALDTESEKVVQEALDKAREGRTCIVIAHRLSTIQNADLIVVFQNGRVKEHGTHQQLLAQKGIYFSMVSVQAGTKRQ

Activity [1]: inhibitor [+]
Activity [2]: is not an inhibitor [-]
Compound: CCCCCCCC/C=C\CCCCCCCC(=O)OCCOCC(OCCO)C1OCC(OCCO)C1OCCO (stereo unspecified) [TWEEN 80]

Activity [3]: is not an inhibitor [-]
Activity [4]: inhibitor [+]
Compound: CREMOPHOR EL

Activity [5]: inhibitor [+]
Activity [6]: inhibitor [+]
Compound: PEG 300
